Test results published in patent publication US20130040935A1, “CYCLIC KETO-ENOLS FOR THERAPY” (BAYER INTELLECTUAL PROPERTY GMBH, priority 2010, published 2013).
pIC50: −log10 of the molar value. Read-outs that look alike come from different tables or passages of the source.

What was measured:
[1] = molecular target: human ACC2 (acetyl-coenzyme A carboxylase 2) (Homo sapiens, UniProt O00763); experiment: Human ACC2 enzyme assay, Assay B2 (ADP-Glo);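 note: human ACC2 activity read as ADP product, detected by luciferase glow luminescence after residual ATP removal, enzyme near 2 ng/µl in linear range, detection steps at 22 °C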
Procedure: The hACC2-inhibitory action of the substances of the present invention was measured in the hACC2 assay described in the paragraphs below.
Essentially, the enzyme activity is measured by quantifying the adenosine diphosphate (ADP) formed as a byproduct of the enzyme reactions using the ADP-Glo™ detection system from Promega. In this test, initially the adenosine triphosphate (ATP) not consumed in the enzyme reaction is converted quantitatively with an adenylate cyclase (“ADP-GLO reagent”) into cAMP, the adenylate cyclase is then stopped and (“kinase detection reagent”) the ADP formed is subsequently converted into ATP, which is converted in a luciferase-based reaction into a glow luminescence signal.
The concentration of the hACC2 was adapted to the respective activity of the enzyme and adjusted such that the assay operated in the linear range. Typical concentrations were in the range of 2 ng/μl. […] The amount of light emitted was taken as a measure for the amount of ADP formed and thus for the enzyme activity of the hACC2.

[2] = molecular target: T1, human ACC1 (acetyl-coenzyme A carboxylase alpha transcript variant 1) (Homo sapiens, UniProt Q13085); experiment: Human ACC1 enzyme assay, Assay B1 (ADP-Glo); assay type: biochemical
T1 construct: FLAG (C); made in house; host or cells: baculovirus-infected insect cells (Hi5)

MCF7 = experiment: Cell proliferation assay (CellTiter-Glo, 96 h), MCF7; assay type: cell-based; conditions: Homo sapiens
Procedure: In accordance with the invention, the substances were tested in cell-based assays for the ability of the substances of inhibiting tumour cell proliferation after a 96-hour incubation with the substance. Cell viability was tested using the CellTiter-Glo® luminescent cell viability assay (Promega). The cells were sown at a density of 2000-5000 cells/well (depending on the cell line) in 100 μl growth medium on 96-well microtitre plates. For each cell line examined, cells were sown on a separate plate to determine the luminescence at t=0 hours and t=96 hours. After overnight incubation at 37° C., the luminescence values for the t=0 samples were determined. The dose plates for the t=96 hours points in time were treated with substances diluted with growth medium. The cells were then incubated at 37° C. for 96 hours, and the luminescence values for the t=96 hours sample were then determined. For data analysis, the t=0 values were subtracted from the t=96 hour values for treated and untreated samples. The differences in luminescence in percent between substance-treated samples and control values were used to determine the growth inhibition in percent.
The substances were tested in the following cell lines which represent the stated indications in an exemplary manner: […]

[3] = Assay B1, read-out: ACC 1 (=B1) IC50
[4] = MCF7, Table 7, 96-hour incubation
[5] = MCF7, Table 9a, 96-hour incubation

human ACC2 (acetyl-coenzyme A carboxylase 2), sequence (O00763 27-2458 limits assumed): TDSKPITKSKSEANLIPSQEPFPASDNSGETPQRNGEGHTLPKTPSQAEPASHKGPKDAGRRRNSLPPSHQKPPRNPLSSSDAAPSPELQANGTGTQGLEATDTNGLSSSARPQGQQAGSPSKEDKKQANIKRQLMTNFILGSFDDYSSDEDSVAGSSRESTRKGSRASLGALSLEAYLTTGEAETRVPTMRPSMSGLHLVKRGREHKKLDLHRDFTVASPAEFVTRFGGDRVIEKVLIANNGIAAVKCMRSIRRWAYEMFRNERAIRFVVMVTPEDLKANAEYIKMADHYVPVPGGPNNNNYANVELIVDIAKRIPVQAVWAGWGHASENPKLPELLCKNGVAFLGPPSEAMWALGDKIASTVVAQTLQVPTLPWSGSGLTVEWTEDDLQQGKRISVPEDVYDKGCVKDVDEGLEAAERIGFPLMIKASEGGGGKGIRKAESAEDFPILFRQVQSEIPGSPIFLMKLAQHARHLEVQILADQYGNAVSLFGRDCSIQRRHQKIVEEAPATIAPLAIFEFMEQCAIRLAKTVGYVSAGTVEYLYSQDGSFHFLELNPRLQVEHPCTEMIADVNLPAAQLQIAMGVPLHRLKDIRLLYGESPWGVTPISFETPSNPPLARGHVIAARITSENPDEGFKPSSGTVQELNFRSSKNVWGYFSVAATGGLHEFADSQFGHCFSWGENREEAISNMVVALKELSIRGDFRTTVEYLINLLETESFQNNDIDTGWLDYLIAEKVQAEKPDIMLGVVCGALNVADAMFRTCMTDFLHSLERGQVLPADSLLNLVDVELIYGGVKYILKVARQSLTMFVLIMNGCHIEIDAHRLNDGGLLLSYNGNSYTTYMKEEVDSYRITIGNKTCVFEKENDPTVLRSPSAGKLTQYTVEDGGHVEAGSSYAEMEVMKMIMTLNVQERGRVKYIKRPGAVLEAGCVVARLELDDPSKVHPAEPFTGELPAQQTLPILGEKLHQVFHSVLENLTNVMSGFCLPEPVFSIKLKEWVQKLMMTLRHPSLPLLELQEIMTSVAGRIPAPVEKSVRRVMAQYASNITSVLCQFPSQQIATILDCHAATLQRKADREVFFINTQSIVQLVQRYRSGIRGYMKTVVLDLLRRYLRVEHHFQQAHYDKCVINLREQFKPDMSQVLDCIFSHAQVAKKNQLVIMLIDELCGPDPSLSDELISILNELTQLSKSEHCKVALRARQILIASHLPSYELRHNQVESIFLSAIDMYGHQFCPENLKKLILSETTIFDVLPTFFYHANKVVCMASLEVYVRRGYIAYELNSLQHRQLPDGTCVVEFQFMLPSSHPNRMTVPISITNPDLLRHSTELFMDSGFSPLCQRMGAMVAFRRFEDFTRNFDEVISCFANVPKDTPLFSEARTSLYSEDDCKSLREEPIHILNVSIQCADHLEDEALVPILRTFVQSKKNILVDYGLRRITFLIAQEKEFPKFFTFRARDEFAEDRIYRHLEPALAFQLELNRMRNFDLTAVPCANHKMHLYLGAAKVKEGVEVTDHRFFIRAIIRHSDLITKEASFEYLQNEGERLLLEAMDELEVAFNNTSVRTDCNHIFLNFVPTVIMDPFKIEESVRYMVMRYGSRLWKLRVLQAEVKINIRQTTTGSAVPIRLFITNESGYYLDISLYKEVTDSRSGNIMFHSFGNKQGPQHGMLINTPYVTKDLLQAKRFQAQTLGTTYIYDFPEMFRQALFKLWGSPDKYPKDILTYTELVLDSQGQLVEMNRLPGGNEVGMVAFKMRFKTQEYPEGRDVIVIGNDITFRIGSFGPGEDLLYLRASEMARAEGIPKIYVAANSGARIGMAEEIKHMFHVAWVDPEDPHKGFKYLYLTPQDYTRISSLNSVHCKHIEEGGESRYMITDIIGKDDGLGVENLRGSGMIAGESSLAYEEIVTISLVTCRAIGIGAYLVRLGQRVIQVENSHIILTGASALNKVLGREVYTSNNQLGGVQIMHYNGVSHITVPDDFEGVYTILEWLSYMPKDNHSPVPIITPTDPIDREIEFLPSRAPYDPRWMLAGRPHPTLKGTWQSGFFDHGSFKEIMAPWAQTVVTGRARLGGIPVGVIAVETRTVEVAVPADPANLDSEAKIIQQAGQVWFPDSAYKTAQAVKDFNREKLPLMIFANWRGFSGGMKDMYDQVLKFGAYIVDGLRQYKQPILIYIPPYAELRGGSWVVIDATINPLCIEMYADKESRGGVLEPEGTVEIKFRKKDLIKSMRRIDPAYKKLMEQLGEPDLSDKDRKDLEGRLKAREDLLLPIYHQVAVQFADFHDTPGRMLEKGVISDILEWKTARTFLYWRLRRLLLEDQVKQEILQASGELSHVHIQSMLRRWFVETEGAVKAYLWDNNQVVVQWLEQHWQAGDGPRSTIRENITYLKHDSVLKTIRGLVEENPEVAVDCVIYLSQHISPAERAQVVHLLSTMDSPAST

Row | pIC50 [1] | pIC50 [2, 3] | pIC50 (MCF7; [4]) | Compound | pIC50 [2] | pIC50 (MCF7; MCF7 cells) | pIC50 (MCF7; [5])
1 | < 4.70 | 4.97 | 6.19 | Cc1ccc(-c2ccc(Cl)cc2)cc1C1=C(O)[C@@]2(CC[C@H](OCC(C)C)C2)NC1=O (relative stereo) [1-49, rel-(5R,7R)-3-(4′-chloro-4-methylbiphenyl-3-yl)-4-hydroxy-7-(2-methylpropoxy)-1-azaspiro[4.4]non-3-en-2-one] | – | – | –
2 | 6.25 | 6.45 | 7.27 | Cc1ccc(-c2ccc(Cl)cc2)c(C)c1C1=C(O)C2(CCC(C)CC2)NC1=O (centres unmarked) [1-4, 3-(4′-chloro-2,4-dimethylbiphenyl-3-yl)-4-hydroxy-8-methyl-1-azaspiro[4.5]dec-3-en-2-one] | – | – | –
3 | < 4.70 | 5.24 | 6.72 | Cc1cc(C)c(-c2ccc(Cl)cc2)cc1C1=C(O)C2(CCCOC2)NC1=O (centres unmarked) [1-8, 3-(4′-chloro-4,6-dimethylbiphenyl-3-yl)-4-hydroxy-7-oxa-1-azaspiro[4.5]dec-3-en-2-one] | – | – | –
4 | < 4.70 | 6.06 | 6.49 | Cc1ccc(-c2ccc(C(F)(F)F)cc2)cc1C1=C(O)C2(CCCCC2)NC1=O [1-12, 4-hydroxy-3-[4 methyl-4′-(trifluoromethyl)biphenyl-3-yl]-1-azaspiro[4.5]dec-3-en-2-one] | – | – | –
5 | < 4.70 | 6.67 | 6.39 | Cc1ccc(-c2ccc(C)c(C3=C(O)C4(CCCCC4)NC3=O)c2)cc1 [1-13, 3-(4,4′-dimethylbiphenyl-3-yl)-4-hydroxy-1-azaspiro[4.5]dec-3-en-2-one] | – | – | –
6 | 4.79 | 5.57 | 6.36 | Cc1ccc(-c2ccc(Cl)cc2)cc1C1=C(O)CN(C2CCCCC2)C1=O [1-22, 3-(4′-chloro-4-methylbiphenyl-3-yl)-1-cyclohexyl-4-hydroxy-1,5-dihydro-2H-pyrrol-2-one] | – | – | –
7 | 5.63 | 6.34 | 6.58 | Cc1ccc(-c2ccc(Cl)cc2)cc1C1=C(O)C2(CCCCCCC2)NC1=O [1-23, 3-(4′-chloro-4-methylbiphenyl-3-yl)-4-hydroxy-1-azaspiro[4.7]dodec-3-en-2-one] | – | – | –
8 | 5.51 | 6.44 | 6.73 | Cc1ccc(-c2ccc(Cl)cc2)cc1C1=C(O)C2(CCCCCC2)NC1=O [1-26, 3-(4′-chloro-4-methylbiphenyl-3-yl)-4-hydroxy-1-azaspiro[4.6]undec-3-en-2-one] | – | – | –
9 | 4.72 | 6.29 | 6.97 | Cc1ccc(-c2ccc(F)cc2)cc1C1=C(O)C2(CCC(OCC(F)(F)F)CC2)NC1=O (centres unmarked) [1-32, 3-(4′-fluoro-4-methylbiphenyl-3-yl)-4-hydroxy-8-(2,2,2-trifluoroethoxy)-1-azaspiro[4.5]dec-3-en-2-one] | – | – | –
10 | 4.94 | 6.53 | 6.95 | Cc1ccc(-c2ccc(Cl)cc2)c(C)c1C1=C(O)C2(CCC3(CCCO3)CC2)NC1=O (centres unmarked) [1-34, 11-(4′-chloro-2,4-dimethylbiphenyl-3-yl)-12-hydroxy-1-oxa-9-azadispiro[4.2.4.2]tetradec-11-en-10-one] | – | – | –
11 | – | – | 5.89 | CO[C@H]1CC[C@]2(CC1)NC(=O)C(c1c(C)cc(C)c(-c3ccc(F)cc3)c1C)=C2O [1-42, (5s,8s)-3-(4′-fluoro-2,4,6-trimethylbiphenyl-3-yl)-4-hydroxy-8-methoxy-1-azaspiro[4.5]dec-3-en-2-one] | – | – | –
12 | – | – | – | COC1CCC2(CC1)OC(=O)C(c1c(C)ccc(-c3ccc(Cl)cc3)c1C)=C2O (centres unmarked) [2-34, 3-(4′-chloro-2,4-dimethylbiphenyl-3-yl)-4-hydroxy-8-methoxy-1-oxaspiro[4.5]dec-3-en-2-one] | – | 6.37 | –
13 | – | – | – | Cc1ccc(-c2ccc(Cl)cc2)cc1C1=C(O)C2(CCCCC2)SC1=O [3-2, 3-(4′-chloro-4-methylbiphenyl-3-yl)-4-hydroxy-1-thiaspiro[4.5]dec-3-en-2-one] | – | – | 6.34
14 | – | 6.30 | – | Cc1ccc(-c2ccc(Cl)cc2)cc1C1=C(O)CC2(CCCCC2)CC1=O [7-2, 3-(4′-chloro-4-methylbiphenyl-3-yl)-4-hydroxyspiro[5.5]undec-3-en-2-one] | – | – | 5.92
15 | – | – | – | Cc1ccc(-c2ccc(Cl)cc2)cc1C1=C(O)CC(C)(C)CC1=O [7-5, 2-(4′-chloro-4-methylbiphenyl-3-yl)-3-hydroxy-5,5-dimethylcyclohex-2-en-1-one] | 6.04 | – | 6.00
16 | – | – | – | O=C1C(c2cc(-c3ccc(Cl)cc3)ccc2Cl)C(=O)N2CCCCN12 [8-2, 2-(4,4′-dichlorobiphenyl-3-yl)tetrahydro-1H-pyrazolo[1,2-a]pyridazine-1,3(2H)-dione] | 6.40 | – | 6.06
17 | – | 5.42 | – | Cc1ccc(-c2ccc(Cl)cc2)cc1C1=C(O)CC(C)(C)NC1=O [9-1, 3-(4′-chloro-4-methylbiphenyl-3-yl)-4-hydroxy-6,6-dimethyl-5,6-dihydropyridin-2(1H)-one] | – | 5.90 | –
18 | – | 5.60 | – | Cc1ccc(-c2ccc(Cl)cc2)cc1C1=C(O)CC(C)(C)N(C)C1=O [9-4, 3-(4′-chloro-4-methylbiphenyl-3-yl)-4-hydroxy-1,6,6-trimethyl-5,6-] | – | 5.46 | –
19 | < 4.70 | 5.89 | – | Cc1ccc(-c2ccc(C(F)(F)F)cc2)cc1-c1c(O)c2ccc(Cl)cc2[nH]c1=O [9-6, 7-chloro-4-hydroxy-3-[4-methyl-4′-(trifluoromethy)biphenyl-3-yl]quinolin-2(1H)-one] | – | – | –
20 | 5.68 | 6.42 | – | Cc1cc(C)c(-c2c(O)c3ccc(Cl)cc3[nH]c2=O)cc1-c1ccc(Cl)cc1 [9-12, 7-chloro-3-(4′-chloro-4,6-dimethyl-biphenyl-3-yl)-4-hydroxyquinolin-2(1H)-one] | – | – | –
21 | 5.40 | 6.72 | – | O=c1[nH]c2cc(Cl)ccc2c(O)c1-c1cc(-c2ccc(Cl)cc2)ccc1Cl [9-13, 7-chloro-3-(4,4′-dichlorobiphenyl-3-yl)-4-hydroxyquinolin-2(1H)-one] | – | – | –
22 | – | – | – | Cc1ccc(-c2ccc(Cl)cc2)cc1C1C(=O)N(C)OC(C)(C)C1=O (centres unmarked) [11-1, 4-(4′-chloro-4-methylbiphenyl-3-yl)-2,6,6-trimethyl-1,2-oxazinane-3,5-dione] | 4.72 | 5.48 | –

Row | Compound | pIC50 [1] | pIC50 [2, 3] | pIC50 (MCF7; [4]) | pIC50 [2] | pIC50 (MCF7; MCF7 cells) | pIC50 (MCF7; [5])
23 | COC1CCC2(CC1)NC(=O)C(c1c(C)cc(C)c(-c3ccc(Cl)cc3)c1C)=C2O (centres unmarked) [1-9, 3-(4′-chloro-2,4,6-trimethylbiphenyl-3-yl)-4-hydroxy-8-methoxy-1-azaspiro[4.5]dec-3-en-2-one] | 6.56 | – | 6.54 | 4.94 | – | –
24 | Cc1ccc(-c2ccc(Cl)cc2)c(C)c1C1=C(O)C2(CCCOC2)NC1=O (centres unmarked) [1-10, 3-(4′-chloro-2,4-dimethylbiphenyl-3-yl)-4-hydroxy-7-oxa-1-azaspiro[4.5]dec-3-en-2-one] | 5.02 | – | 5.89 | 6.30 | – | –
25 | Cc1ccc(-c2ccc(Cl)cc2)cc1C1=C(O)C2CSCCN2C1=O (centres unmarked) [1-21, 7-(4′-chloro-4-methylbiphenyl-3-yl)-8-hydroxy-1,3,4,8a-tetrahydro-6H-pyrrolo[2,1-c][1,4]thiazin-6-one] | 4.99 | – | 6.41 | 6.20 | – | –
26 | Cc1ccc(-c2ccc(Cl)cc2)c(C)c1C1C(=O)N2CCOCCN2C1=O [8-8, 8-(4′-chloro-2,4-dimethylbiphenyl-3-yl)tetrahydro-7H-pyrazolo[1,2-d][1,4,5]oxadiazepine-7,9(8H)-dione] | < 4.70 | – | – | 5.88 | – | –
